From ChEMBL document CHEMBL1201862, “PubChem BioAssay data set” (2004)
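Where inhibition never reached the appropriate level, the endpoint shown equals the highest concentration tested. Otherwise, values were interpolated linearly from a five-concentration, 48-hour dose response in 96-well plates. GI50 marks 50% less growth.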 Activity calls are given as the source filed them. No stated cut-off is given here; in the data, active = GI50 up to about 1.1 µM and inactive = higher.

Tests used:
Assay in all cases: growth of human tumour cells (NCI), 48 h
SF-268 = system: SF-268
SK-OV-3 = system: SK-OV-3
HOP-62 = system: HOP-62
KM12 = system: KM12
HOP-92 = system: HOP-92
SR = system: SR
M14 = system: M14
RPMI-8226 = system: RPMI-8226
SF-539 = system: SF-539
UACC-62 = system: UACC-62
NCI-H23 = system: NCI-H23
CCRF-CEM = system: CCRF-CEM
HT-29 = system: HT-29
LOX IMVI = system: LOX IMVI
HCT-15 = system: HCT-15
SK-MEL-5 = system: SK-MEL-5
SK-MEL-2 = system: SK-MEL-2
MDA-MB-435 = system: MDA-MB-435
Hs-578T = system: Hs-578T

| SMILES | GI50 (SF-268) | GI50 (SK-OV-3) | GI50 (HOP-62) | GI50 (KM12) | GI50 (HOP-92) | GI50 (SR) | GI50 (M14) | GI50 (RPMI-8226) | GI50 (SF-539) | GI50 (UACC-62) | GI50 (NCI-H23) | GI50 (CCRF-CEM) | GI50 (HT-29) | GI50 (LOX IMVI) | GI50 (HCT-15) | GI50 (SK-MEL-5) | GI50 (SK-MEL-2) | GI50 (MDA-MB-435) | GI50 (Hs-578T) |
| --- | --- | --- | --- | --- | --- | --- | --- | --- | --- | --- | --- | --- | --- | --- | --- | --- | --- | --- | --- |
| N#CC(/C(CCCC(=O)Nc1cccc([N+](=O)[O-])c1)=N/NC(=O)c1cc2ccccc2cc1O)c1ccccc1 (configuration not stated) | 48.1 µM (inactive) | 61.8 µM (inactive) | 60.7 µM (inactive) | 62.2 µM (inactive) | 29.8 µM (inactive) | 26.8 µM (inactive) | 16.3 µM (inactive) | 35.4 µM (inactive) | 27.4 µM (inactive) | 15.8 µM (inactive) | 20 µM (inactive) | 6.1 µM (inactive) | 36.4 µM (inactive) | 16.4 µM (inactive) | 17.9 µM | 21.2 µM (inactive) | – | – | – |
| O=C1C[C@H](c2ccc(O)c(O)c2)Oc2cc(O)cc(O)c21 | 63.5 µM (inactive) | > 100 µM (inactive) | > 100 µM (inactive) | 78.2 µM (inactive) | 56.8 µM (inactive) | 27 µM (inactive) | > 100 µM (inactive) | > 100 µM (inactive) | > 100 µM (inactive) | 61.7 µM (inactive) | > 100 µM (inactive) | 31.2 µM (inactive) | > 100 µM (inactive) | > 100 µM (inactive) | > 100 µM | > 100 µM (inactive) | > 100 µM (inactive) | – | – |
| CN(C)c1nc(N(C)C)sc(=O)n1 | > 100 µM (inactive) | > 100 µM (inactive) | > 100 µM (inactive) | > 100 µM (inactive) | > 100 µM (inactive) | > 100 µM (inactive) | > 100 µM (inactive) | > 100 µM (inactive) | > 100 µM (inactive) | > 100 µM (inactive) | > 100 µM (inactive) | > 100 µM (inactive) | > 100 µM (inactive) | – | > 100 µM | > 100 µM (inactive) | > 100 µM (inactive) | – | – |
| CC(=O)C1=C(C)NC2C=CC=CN12 (configuration not stated) | > 100 µM (inactive) | > 100 µM (inactive) | > 100 µM (inactive) | > 100 µM (inactive) | > 100 µM (inactive) | > 100 µM (inactive) | > 100 µM (inactive) | > 100 µM (inactive) | > 100 µM (inactive) | > 100 µM (inactive) | > 100 µM (inactive) | > 100 µM (inactive) | > 100 µM (inactive) | > 100 µM (inactive) | > 100 µM | > 100 µM (inactive) | > 100 µM (inactive) | – | – |
| Cc1ccc(NC(=O)C(=O)C(C#N)c2ccccc2C)cc1C (configuration not stated) | > 100 µM (inactive) | > 100 µM (inactive) | > 100 µM (inactive) | > 100 µM (inactive) | > 100 µM (inactive) | > 100 µM (inactive) | > 100 µM (inactive) | > 57.8 µM (inactive) | > 100 µM (inactive) | > 100 µM (inactive) | > 100 µM (inactive) | > 61.7 µM (inactive) | > 100 µM (inactive) | > 41.2 µM (inactive) | > 42.4 µM | > 100 µM (inactive) | > 100 µM (inactive) | – | – |
| O=C1C=C(O)c2nc(O)ccc2C1=O | > 100 µM (inactive) | > 100 µM (inactive) | > 100 µM (inactive) | – | > 100 µM (inactive) | > 100 µM (inactive) | > 100 µM (inactive) | > 100 µM (inactive) | > 100 µM (inactive) | > 100 µM (inactive) | > 100 µM (inactive) | > 100 µM (inactive) | > 100 µM (inactive) | > 100 µM (inactive) | > 100 µM | > 100 µM (inactive) | – | – | – |
| CCOC(=O)C1=CN=C2C(=O)N(c3ccccc3)N(C)C2(C)C1=N (configuration not stated) | – | > 100 µM (inactive) | – | > 100 µM (inactive) | > 100 µM (inactive) | – | > 100 µM (inactive) | > 100 µM (inactive) | > 100 µM (inactive) | > 100 µM (inactive) | > 100 µM (inactive) | > 100 µM (inactive) | – | > 100 µM (inactive) | > 100 µM | > 100 µM (inactive) | > 100 µM (inactive) | > 100 µM (inactive) | – |
| Cc1ccc(C(=O)N/N=C(\N=N\c2cccc([N+](=O)[O-])c2)c2ccc(N(C)C)cc2)cc1 | > 100 µM (inactive) | – | – | 64.9 µM (inactive) | > 100 µM (inactive) | – | 29.2 µM (inactive) | 61.9 µM (inactive) | > 100 µM (inactive) | – | > 100 µM (inactive) | 35 µM (inactive) | 46.5 µM (inactive) | 99.8 µM (inactive) | 50.7 µM | 25.7 µM (inactive) | > 100 µM (inactive) | 24.9 µM (inactive) | > 100 µM (inactive) |
| COc1cc2c(cc1OC)C(C(CBr)CBr)N(C1CCCC1)CC2 (configuration not stated) | > 100 µM (inactive) | > 100 µM (inactive) | > 100 µM (inactive) | > 100 µM (inactive) | 41.3 µM (inactive) | > 100 µM (inactive) | > 100 µM (inactive) | > 100 µM (inactive) | > 100 µM (inactive) | > 100 µM (inactive) | > 100 µM (inactive) | > 100 µM (inactive) | > 100 µM (inactive) | > 100 µM (inactive) | > 100 µM | > 100 µM (inactive) | > 100 µM (inactive) | – | – |
| COc1ccc(CC#C/C=C/C(=O)NCC(C)C)cc1 | > 100 µM (inactive) | > 100 µM (inactive) | – | > 100 µM (inactive) | > 100 µM (inactive) | 66.1 µM (inactive) | > 100 µM (inactive) | > 100 µM (inactive) | > 100 µM (inactive) | > 100 µM (inactive) | > 100 µM (inactive) | 74.1 µM (inactive) | > 100 µM (inactive) | > 100 µM (inactive) | > 100 µM | > 100 µM (inactive) | > 100 µM (inactive) | – | – |
| COC(=O)N/N=C/c1oc(-c2ccccc2)c(-c2ccccc2)c1[N+](=O)[O-] | > 100 µM (inactive) | > 100 µM (inactive) | > 100 µM (inactive) | > 100 µM (inactive) | > 100 µM (inactive) | > 100 µM (inactive) | > 100 µM (inactive) | > 100 µM (inactive) | > 100 µM (inactive) | > 100 µM (inactive) | > 100 µM (inactive) | – | > 100 µM (inactive) | > 100 µM (inactive) | > 100 µM | > 100 µM (inactive) | – | – | – |
| CC(=O)OC1COC(N2C(=O)C(=O)c3ccccc32)C(OC(C)=O)C1OC(C)=O (configuration not stated) | > 100 µM (inactive) | > 100 µM (inactive) | > 100 µM (inactive) | > 100 µM (inactive) | > 100 µM (inactive) | > 100 µM (inactive) | > 100 µM (inactive) | > 100 µM (inactive) | > 100 µM (inactive) | 68.9 µM (inactive) | > 100 µM (inactive) | > 100 µM (inactive) | > 100 µM (inactive) | > 100 µM (inactive) | > 100 µM | > 100 µM (inactive) | > 100 µM (inactive) | – | – |
| COc1ccc(C(c2c(O)c3ccccc3n(-c3ccccc3)c2=O)c2c(O)c3ccccc3n(-c3ccccc3)c2=O)cc1 | > 100 µM (inactive) | – | > 100 µM (inactive) | > 100 µM (inactive) | 49.2 µM (inactive) | 72.4 µM (inactive) | – | > 100 µM (inactive) | > 100 µM (inactive) | – | > 100 µM (inactive) | > 100 µM (inactive) | – | > 100 µM (inactive) | > 100 µM | > 100 µM (inactive) | > 100 µM (inactive) | – | – |
| COC1=CC(C2c3cc4c(cc3[C@@H](Nc3ccc([N+](=O)[O-])cc3)C3COC(=O)[C@H]23)OCO4)=CC(=O)C1=O (some centres not stated) | 2.53 µM (inactive) | 2.48 µM (inactive) | 0.646 µM (active) | 4.53 µM (inactive) | 1.52 µM (inactive) | 0.179 µM (active) | 3.29 µM (inactive) | 2.43 µM (inactive) | 1.82 µM (inactive) | 2.18 µM (inactive) | 1.64 µM (inactive) | 1.06 µM (active) | 7.21 µM (inactive) | 2.15 µM (inactive) | 3.27 µM | 3.48 µM (inactive) | 17 µM (inactive) | – | – |
| C#C[C@@]1(O)CCCC2=CC(=O)C[C@]21C | > 100 µM (inactive) | > 100 µM (inactive) | – | > 100 µM (inactive) | > 100 µM (inactive) | > 100 µM (inactive) | > 100 µM (inactive) | > 100 µM (inactive) | > 100 µM (inactive) | – | > 100 µM (inactive) | > 100 µM (inactive) | > 100 µM (inactive) | – | > 100 µM | > 100 µM (inactive) | > 100 µM (inactive) | – | – |
| CCCC(C)NC1=C(NC(C)=O)C(=O)c2ccccc2C1=O (configuration not stated) | > 100 µM (inactive) | > 100 µM (inactive) | > 100 µM (inactive) | > 100 µM (inactive) | 47.9 µM (inactive) | > 100 µM (inactive) | > 100 µM (inactive) | – | > 100 µM (inactive) | > 100 µM (inactive) | > 100 µM (inactive) | > 100 µM (inactive) | > 100 µM (inactive) | > 100 µM (inactive) | > 100 µM | 73.8 µM (inactive) | > 100 µM (inactive) | – | – |
| CC1=C(CO)C(=O)O[C@@H]([C@@H](C)[C@H]2CC[C@H]3[C@@H]4C[C@H]5O[C@]56[C@@H](O)C=CC(=O)[C@]6(C)[C@H]4CC[C@]23C)C1 [WITHAFERIN A] | 0.352 µM (active) | – | 2.04 µM (inactive) | 3.72 µM (inactive) | 0.467 µM (active) | 0.189 µM (active) | 0.423 µM (active) | 0.247 µM (active) | 1.34 µM (inactive) | 1.45 µM (inactive) | 0.221 µM (active) | 0.113 µM (active) | 0.417 µM (active) | – | 0.446 µM | 1.68 µM (inactive) | 0.601 µM (active) | – | – |
